The NIST ThermoML archive (doi:10.1021/je800203s)

Tests used:
[1] = Crystal
[2] = Molar enthalpy of transition or fusion; settings: Crystal
[3] = molar heat capacity at constant pressure; settings: 101.33 kPa

COc1ccc(CC#N)cc1OC [(3,4-dimethoxyphenyl)acetonitrile]
Settings | Molar enthalpy of transition or fusion [kcal/mol] | Triple point temperature [K]
[1] | – | 337.08
[2] | 5.91 | –

[3]
Settings | molar heat capacity at constant pressure [J/K/mol]
78.32 K, Crystal | 80.52
80 K, Crystal | 82.15
81.06 K, Crystal | 82.37
84.38 K, Crystal | 84.71
85 K, Crystal | 85.39
87.3 K, Crystal | 87.42
90 K, Crystal | 88.81
90.17 K, Crystal | 89.84
93.05 K, Crystal | 91.31
95 K, Crystal | 92.41
95.92 K, Crystal | 93.07
98.78 K, Crystal | 94.96
100 K, Crystal | 96.15
102.8 K, Crystal | 97.78
105 K, Crystal | 100
106.79 K, Crystal | 101.8
109.62 K, Crystal | 103.7
110 K, Crystal | 104
112.5 K, Crystal | 106.5
115 K, Crystal | 108
115.38 K, Crystal | 108.6
118.25 K, Crystal | 111
120 K, Crystal | 112.1
121.12 K, Crystal | 113.3
123.99 K, Crystal | 115.6
125 K, Crystal | 116.3
126.87 K, Crystal | 118
129.71 K, Crystal | 120.3
130 K, Crystal | 120.4
132.55 K, Crystal | 122.1
135 K, Crystal | 124.6
135.4 K, Crystal | 124.9
138.26 K, Crystal | 127.8
140 K, Crystal | 128.8
141.12 K, Crystal | 129.7
143.94 K, Crystal | 131.8
145 K, Crystal | 133
146.78 K, Crystal | 134.2
149.62 K, Crystal | 136.7
150 K, Crystal | 137.1
153.27 K, Crystal | 139.5
155 K, Crystal | 141.2
156.88 K, Crystal | 142.9
159.69 K, Crystal | 144.6
160 K, Crystal | 145.3
162.54 K, Crystal | 146.5
165 K, Crystal | 149.3
165.37 K, Crystal | 148.6
168.16 K, Crystal | 151.4
170 K, Crystal | 153.3
170.93 K, Crystal | 153.9
173.78 K, Crystal | 156.3
175 K, Crystal | 157.2
176.63 K, Crystal | 157.8
179.46 K, Crystal | 159.5
180 K, Crystal | 161
182.27 K, Crystal | 162.3
185 K, Crystal | 164.7
185.06 K, Crystal | 164.3
187.83 K, Crystal | 167.4
190 K, Crystal | 168.4
190.65 K, Crystal | 168.8
195 K, Crystal | 172
196.37 K, Crystal | 174.3
199.23 K, Crystal | 175.5
200 K, Crystal | 175.6
202.71 K, Crystal | 177.3
205 K, Crystal | 179
206.12 K, Crystal | 180.1
208.91 K, Crystal | 182.6
210 K, Crystal | 182.5
211.79 K, Crystal | 184.7
214.67 K, Crystal | 185.5
215 K, Crystal | 185.8
217.53 K, Crystal | 187.8
220 K, Crystal | 189.1
220.39 K, Crystal | 189.8
223.24 K, Crystal | 192.6
225 K, Crystal | 192.4
226.07 K, Crystal | 194.1
228.97 K, Crystal | 196
230 K, Crystal | 195.6
231.92 K, Crystal | 198.1
234.86 K, Crystal | 200.2
235 K, Crystal | 198.8
237.82 K, Crystal | 201.4
240 K, Crystal | 202
240.78 K, Crystal | 203
244.26 K, Crystal | 204.7
245 K, Crystal | 205.2
247.72 K, Crystal | 206
250 K, Crystal | 208.4
250.62 K, Crystal | 206.7
253.5 K, Crystal | 208.8
255 K, Crystal | 211.6
256.38 K, Crystal | 210.7
259.24 K, Crystal | 213.1
260 K, Crystal | 214.9
262.1 K, Crystal | 214.8
264.94 K, Crystal | 216.4
265 K, Crystal | 218.2
267.89 K, Crystal | 218.3
270 K, Crystal | 221.6
270.93 K, Crystal | 221.1
273.96 K, Crystal | 223.6
275 K, Crystal | 225.2
276.98 K, Crystal | 226.3
279.99 K, Crystal | 228.9
280 K, Crystal | 228.8
283 K, Crystal | 231.4
285 K, Crystal | 232.6
285.98 K, Crystal | 234.1
288.95 K, Crystal | 236.8
290 K, Crystal | 236.6
291.89 K, Crystal | 239.8
294.78 K, Crystal | 242.2
295 K, Crystal | 240.8
297.68 K, Crystal | 245.2
298.15 K, Crystal | 243.5
300 K, Crystal | 245.2
300.71 K, Crystal | 247.1
303.68 K, Crystal | 250.1
305 K, Crystal | 249.8
306.62 K, Crystal | 252.2
309.56 K, Crystal | 254.2
310 K, Crystal | 254.8
312.48 K, Crystal | 256
315 K, Crystal | 260
315.49 K, Crystal | 259.8
318.59 K, Crystal | 261.9
320 K, Crystal | 265.6
321.66 K, Crystal | 267
324.72 K, Crystal | 275
327.73 K, Crystal | 284.8
330.67 K, Crystal | 313
340 K, Liquid | 350.5
342.04 K, Liquid | 352
345 K, Liquid | 353.2
345.02 K, Liquid | 352.7
348.08 K, Liquid | 354.6
350 K, Liquid | 356
351.14 K, Liquid | 356.8
354.19 K, Liquid | 358.7
355 K, Liquid | 358.7
357.24 K, Liquid | 360.1
360 K, Liquid | 361.4
360.28 K, Liquid | 361.3
363.32 K, Liquid | 362.6
365 K, Liquid | 363.9
366.35 K, Liquid | 364.4
369.38 K, Liquid | 366.3
370 K, Liquid | 366.3
372.4 K, Liquid | 367.9
375 K, Liquid | 368.7
375.42 K, Liquid | 368.7
378.43 K, Liquid | 370.1
380 K, Liquid | 371
381.44 K, Liquid | 371.6
384.44 K, Liquid | 373
385 K, Liquid | 373.3
387.44 K, Liquid | 374.5
390 K, Liquid | 375.7
390.43 K, Liquid | 376.1
393.41 K, Liquid | 377.4
395 K, Liquid | 378.4
396.39 K, Liquid | 379.4
399.38 K, Liquid | 380.9
400 K, Liquid | 381.5
